# In PMC10348910, “Epigenetic reprogramming of cell cycle genes by ACK1 promotes breast cancer resistance to CDK4/6 inhibitor” (Oncogene, 2023):
# Legend:
# [1] = tested on: luciferase expressing 4T1 cells; experiment: orthotopic lung metastasis study; format: in vivo, female Balb/c mice; details: 24 mg/kg subcutaneously, 2 weeks
# Description: In addition, we performed fluorescent imaging on mice orthotopically injected with luciferase expressing 4T1 cells (5 × 10^5). Two weeks after inoculation into the mammary fat pads, mice were subcutaneously injected with vehicle (6% Captisol) or (R)-9b (24 mg/kg) five times a week for 2 weeks. Mice were then administered an intraperitoneal injection of D-luciferin, lungs were excised and imaged for metastases.
# Female Balb/c mice were orthotopically injected with luciferase expressing 4T1 cells (5 × 10^5). Two weeks after inoculation into the 5th mammary fat pads, mice were subcutaneously injected with vehicle (6% captisol) or (R)-9b (24 mg/Kg) five times a week, for 2 weeks. Mice were then intraperitoneally injected with D-luciferin, humanely euthanized, lungs were excised and assessed for metastases using both fluorescent in vivo imaging system and H&E staining.
# [2] = tested on: pY88-H4 marks in CXCR4 promoter region; experiment: ChIP-qPCR with pY88-H4 antibody for CXCR4 gene; format: cell-based; details: breast cancer cells
# Description: Fig. 7 ACK1 inhibitor overcomes palbociclib-resistant breast cancer growth and metastasis. A 3 × 10^6 MDA-MB-468 cells were injected in the 4th inguinal mammary fat pad of female SCID mice. Once the tumors were palpable, the mice were treated with either vehicle (Captisol; n = 7), Palbociclib at 80 mg/kg (n = 6), or (R)-9b at 36 mg/Kg (n = 6) orally. In addition, mice were injected with (R)-9b at 24 mg/Kg (n = 7) subcutaneously. Mice were treated five times a week, for 22 days. B, C The tumors were harvested and photographed, and the weights were recorded. D Vehicle or (R)-9b treated breast cancer cells were subjected to ChIP using pY88-H4 antibody, followed by qPCR for CXCR4 gene. […] H Graphical quantitation of lung metastatic deposit. […] The metastases were assessed using IVIS. […] For (A, C–F, I), p values were calculated using unpaired two-tailed Student’s t test.
# Cell pellets were resuspended in RLB buffer and sonicated and the soluble chromatin was incubated with antibodies and Protein-G/A magnetic beads. […] The size and quality of the library was evaluated using the Agilent BioAnalyzer (Agilent Technologies, Inc., Santa Clara, CA), and the library was quantitated with the Kapa Library Quantification Kit. Each enriched DNA library was then sequenced on an Illumina NextSeq 500 sequencer to generate 40–50 million 75-base paired-end reads (Illumina, Inc., San Diego, CA). […]
# pY88-H4 = experiment: immunoprecipitation and immunoblotting for pY88-H4; format: cell-based; details: breast cancer cell lines; overnight
# Description: Fig. 4 ACK1 epigenetically modifies the chromatin landscape by depositing pY88-H4 activating marks, regulating cell cycle genes. A Breast cancer cell lines were treated with (R)-9b overnight and the cell lysates were subjected to immunoprecipitation using pY88-H4 antibody, followed by immunoblotting with H4 antibody. Lysates were also subjected to immunoblotting with total H4 and Actin antibodies, shown in the lower panels. […] B Venn diagrams summarizing the overlap between sites bound by pY88-H4 in vehicle treated and (R)-9b treated MDA-MB-453 cells. […] Breast cancer cells were subjected to ChIP using pY88-H4 antibody followed by qPCR for (D) CCNB1, (E) CCNB2, and (F) CDC20 genes. For (A), representative images of three independent experiments are shown. For (D–F), data are represented as the mean ± SEM. *p < 0.05, **p < 0.01, ***p < 0.001, unpaired two-tailed Student’s t test.
# Vehicle or (R)-9b (5 µM, overnight in serum free media) treated cells were lysed by sonication in receptor lysis buffer (RLB) and lysates were fractionated by SDS-PAGE, and transferred onto a PVDF membrane (Immobilon). […]
compound,measurement,setting,value
CN1CCN(c2ccc(Nc3ncc(Cl)c(NC[C@H]4CCCO4)n3)cc2)CC1 [(R)-9b],lung tumor nodules (H&E),[1],absent
same,lung luminescence (photons/sec),[1]; five times a week,significant decrease
same,pY88-H4 epigenetic marks in CXCR4 promoter region,[2],erased these marks
same,pY88-H4 epigenetic marks (immunoblot),pY88-H4,significantly compromised
